The values that follow come from patent US20090162413A1 (priority 1998, published 2009).

The nature of series [1]: release of zotarolimus from PC polymer coated 316L stainless steel coupons (Example 4). It counts as physicochemical. The source says:
The purpose of this example is to determine the rate of release of the zotarolimus drug from 316L Electropolished Stainless Steel Coupons coated with a biocompatible polymer containing phosphorylcholine side groups.
Rubber septa from lids from HPLC vials were removed from the vials and placed into glass vials so that the “Teflon” side faced up. These septa served as supports for the test samples. The test samples were 316L stainless steel coupons that had been previously coated with a biocompatible polymer containing phosphorylcholine side groups (PC polymer). Coronary stents are commonly made of 316L stainless steel and can be coated with the PC polymer to provide a depot site for loading drugs. The coated coupons, which serve to simulate stents, were placed onto the septa. By using a glass Hamilton Syringe, a solution of zotarolimus and ethanol (10 μl) was applied to the surface of each coupon. The solution contained zotarolimus (30.6 mg) dissolved in 100% ethanol (3.0 ml). The syringe was cleaned with ethanol between each application. The cap to the glass vial was placed on the vial loosely, thereby assuring proper ventilation. The coupon was allowed to dry for a minimum of 1.5 hours. Twelve (12) coupons were loaded in this way—six being used to determine the average amount of drug loaded onto the device and six being used to measure the time needed to release the drug from the devices.
To determine the total amount of zotarolimus loaded onto a coupon, a coupon was removed from the vial and placed into 50/50 acetonitrile/0.01M phosphate buffer (pH 6.0, 5.0 ml). The coupon was placed onto a 5210 Branson sonicator for one hour. The coupon was then removed from the solution, and the solution was assayed by HPLC.
The time release studies were performed by immersing and removing the individual coupons from fresh aliquots (10.0 ml) of 0.01 M phosphate buffer at a pH of 6.0 at each of the following time intervals −5, 15, 30 and 60 minutes. For the remaining time points of 120, 180, 240, 300, 360 minutes, volumes of 5.0 ml of buffer were used. To facilitate mixing during the drug release phase, the samples were placed onto an Eberbach shaker set at low speed. All solution aliquots were assayed by HPLC after the testing of the last sample was completed.
The HPLC analysis was performed with a Hewlett Packard series 1100 instrument having the following settings: […]

In series [2] the test system is human coronary artery smooth muscle cells (hCaSMC). Nature of the series: 3H-thymidine uptake proliferation assay, hCaSMC. Conditions: Homo sapiens; read-out: hCaSMC IC50 Mean ± SEM. Type of series: cell-based. On the procedure: Experiments were performed to investigate interactions between zotarolimus (ABT-578) and paclitaxel when administered in combination. The effects of paclitaxel and zotarolimus on the anti-proliferative activity of human coronary artery smooth muscle ([…]) and endothelial […] determined using an in vitro proliferation assay. The proliferation and migration of vascular smooth muscle cells into the vascular neointima is a characteristic pathologic response seen in restenotic lesions (Lafont and Libby, 1998). As a result, in vitro assays which specifically measure the anti-proliferative activity of candidate anti-restenotic compounds on human coronary artery smooth muscle and endothelial cells predict potential anti-restenotic activity in vivo. Compounds or combinations of compounds which attenuate growth factor-mediated human coronary artery smooth muscle cell ([…]) proliferation, as measured by the tritium incorporation assay in vitro, are candidate anti-restenotic agents. The tritium incorporation assay is an accurate and sensitive method to determine cell number and proliferation. […] The attenuation of zotarolimus's anti-proliferative activity by tacrolimus is a clear example of this effect (FIG. 10A). To determine the potential anti-restenotic activity of combinations of zotarolimus and paclitaxel, the proliferation of […] was measured in the presence of each compound and in combination. To determine if paclitaxel attenuated or augmented the activity of zotarolimus the effect of paclitaxel and zotarolimus alone and in combination on growth-factor induced proliferation was determined. Data were analyzed for additivity using an isobologram approach and a combination index analysis. An isobologram is a Cartesian plot of pairs of doses that, in combination, yield a specified level of effect. It is a convenient way of graphically displaying results of drug-combination and similar studies, because paired values of experimental points that fall below or above the line connecting the axial points indicate synergistic and non-synergistic interactions, respectively. Cell proliferation was monitored by following incorporation of ^3H-thymidine into newly synthesized DNA of cells stimulated by serum and growth factors. Exponentially growing […] were seeded into 96-well flat bottom tissue culture plates at 5,000 cells/well (10,000 cells/well for […]). The cells were allowed to attach overnight. The growth medium was removed the following day, and cells were washed twice with un-supplemented (basal) medium to remove traces of serum and growth factors. […] PerkinElmer; Wellesley; MA) was added to each filter well and the plates were counted using a TopCount microplate scintillation counter (PerkinElmer). […]

Usually IC50 stands for the point on the concentration scale where inhibition reaches its midpoint. In the case of `CO[C@H]1C[C@@H]2CC[C@@H](C)[C@@](O)(O2)C(=O)C(=O)N2CCCC[C@H]2C(=O)O[C@H]([C@H](C)C[C@@H]2CC[C@H](n3cnnn3)[C@H](OC)C2)CC(=O)[C@H](C)/C=C(\C)[C@@H](O)[C@@H](OC)C(=O)[C@H](C)C[C@H](C)/C=C/C=C/C=C/1C` [zotarolimus], the “Percent Release” value in series [1] (0.01 M phosphate buffer pH 6.0, 0.00 min) stood at 0.00; in series [1] (0.01 M phosphate buffer pH 6.0, 5.00 min) it was 1.87; in series [1] (0.01 M phosphate buffer pH 6.0, 15.00 min), 2.97; in series [1] (0.01 M phosphate buffer pH 6.0, 30.00 min), 3.24; in series [1] (0.01 M phosphate buffer pH 6.0, 60.00 min), 3.29; in series [1] (0.01 M phosphate buffer pH 6.0, 180.00 min) it was 4.36. Also, the “Percent Release” value in series [1] (0.01 M phosphate buffer pH 6.0, 240.00 min) stood at 4.37; in series [1] (0.01 M phosphate buffer pH 6.0, 300.00 min), 6.34; in series [1] (0.01 M phosphate buffer pH 6.0, 360.00 min) it was 7.88. In addition, the IC50 in series [2] stood at 4.2 ± 1.7 nM.
